{
  "source": "patent US20210337839A1",
  "about": "“SYSTEM AND METHOD FOR RECO[…]” (Restrain Company Limited, priority 2020, published 2021)",
  "system": "fontane variety of potatoes",
  "description": "There now follows a description of an experimental trial by the inventors\nThe goal of the trial was to recondition French fry tubers in a 2-3 week period to improve fry colour and maintain brittle sprouts.\n3 trial cells were operated, each 85 cubic meters in size and holding fontane variety of potatoes. The stores holding each trial cell stores were warmed to 12.5° C.\nA sample was taken from each cell. Each sample was made up of 25 tubers from the front and the back of the store. The tubers selected were showing signs of sprouting in some degree and have had variable and in some cases poor fry color results.\nThe first sample was sent for a benchmark Soleye fry colour measurement. Soleye is an optical colour reader used to determine fry colour.\nGradually reducing the ethylene level by 0.5 ppm per day from […] @ 12 C\nFirst 7 days 4 ppm and from day 8 reduced to continuous 2 ppm @ 12 C",
  "data": [
    {"smiles": "C=C", "note": "[ethylene]", "values": [
      {"measurement": "Soleye fry colour score (the lower the score, the better the fry colour)", "setting": "after reconditioning, samples from store 64: continuous 2 ppm ethylene @ 12 C, FIG. 3", "value": 0},
      {"measurement": "sprout condition following reconditioning", "setting": "cells 56, 60 and 64, ethylene programmes at 12 C, 2-3 week period, all tubers", "value": "maintained brittle sprouts"}
    ]}
  ]
}
